Reference: patent US8791143B2, “Anthranilic diamide derivatives having cyclic side-chains” (priority 2010, dated 2014)
Where two headings read alike, the source gives them in different places.

What was measured:
[1] = tested on: larvae of the mustard beetle (Phaedon cochleariae); assay: Phaedon test (PHAECO spray treatment); details: for inhibition at 20 g/ha / pest or weed control at 100 g/ha / pest or weed control at 500 g/ha: Phaedon cochleariae, 168 h; for inhibition at 20 g/ha: read-out: % Activity PHAECO; for pest or weed control at 100 g/ha / pest or weed control at 500 g/ha: read-out: activity in % (beetle larvae killed)
[2] = tested on: caterpillars of the armyworm (Spodoptera frugiperda); assay: Spodoptera frugiperda test (SPODFR spray treatment); format: in vivo; details: for pest or weed control at 100 g/ha / pest or weed control at 500 g/ha: read-out: activity in % (caterpillars killed)
[3] = tested on: green peach aphid (Myzus persicae); assay: Myzus test (MYZUPE spray treatment); format: in vivo; details: for pest or weed control at 100 g/ha / inhibition at 20 g/ha / inhibition at 100 g/ha / pest or weed control at 500 g/ha: Myzus persicae, 144 h; for pest or weed control at 100 g/ha / pest or weed control at 500 g/ha: read-out: activity in % (aphids killed); for inhibition at 20 g/ha / inhibition at 100 g/ha: 6 d, comparison with prior art
[4] = log P by HPLC on reversed-phase columns (EEC Directive 79/831 Annex V.A8); format: physicochemical
[5] = application rate 100 g/ha, after 7 days
[6] = Spodoptera frugiperda, 168 h, 7 d, comparison with prior art
[7] = application rate 100 g/ha, after 6 days
[8] = Spodoptera frugiperda, 168 h, application rate 100 g/ha, after 7 days
[9] = reversed-phase C18 HPLC column, pH 2.7, HPLC reversed-phase C18, acidic range pH 2.7 (HCOOH), only or first value of the cell, read-out: log P

Compound | pest or weed control at 100 g/ha [3] | chromatographic logP ([4]; pH 2.7, log P) | pest or weed control at 100 g/ha [1] | pest or weed control at 100 g/ha ([2]; Spodoptera frugiperda, 168 h) | also measured
Cc1cc(C#N)cc(C(=O)NC2COC2)c1NC(=O)c1cc(Cn2nnc(C(F)(F)F)n2)nn1-c1ncccc1Cl [Example 1] | 90% | 2.49 | – | – | activity in % (beetle larvae killed) [1, 5]: 100%; activity in % (caterpillars killed) [2, 5]: 100%; inhibition at 20 g/ha [3]: 100%
Cc1cc(Cl)cc(C(=O)NC2COC2)c1NC(=O)c1cc(Cn2nnc(C(F)(F)F)n2)nn1-c1ncccc1Cl [Example 2] | 100% | 2.8 | 100% | 100% | inhibition at 20 g/ha [1]: 100%; inhibition at 20 g/ha [2, 6]: 100%; inhibition at 100 g/ha [3]: 100%
Cc1cc(Br)cc(C(=O)NC2COC2)c1NC(=O)c1cc(Cn2nnc(C(F)(F)F)n2)nn1-c1ncccc1Cl [Example 3] | 100% | 2.87 | 100% | 100% | –
Cc1cc(F)cc(C(=O)NC2COC2)c1NC(=O)c1cc(Cn2nnc(C(F)(F)F)n2)nn1-c1ncccc1Cl [Example 4] | 100% | 2.53 | 100% | 100% | –
Cc1cc(I)cc(C(=O)NC2COC2)c1NC(=O)c1cc(Cn2nnc(C(F)(F)F)n2)nn1-c1ncccc1Cl [Example 6] | 80% | 3 | 100% | 100% | –
Cc1cc(C)c(NC(=O)c2cc(Cn3nnc(C(F)(F)F)n3)nn2-c2ncccc2Cl)c(C(=O)NC2COC2)c1 [Example 7] | 90% | 2.67 | 100% | 100% | –
O=C(NC1COC1)c1cc(Cl)cc(Cl)c1NC(=O)c1cc(Cn2nnc(C(F)(F)C(F)(F)F)n2)nn1-c1ncccc1Cl [Example 10] | – | 3.18 | 100% | 100% | pest or weed control at 500 g/ha [3]: 100%
Cc1cc(C#N)cc(C(=O)NC2COC2)c1NC(=O)c1cc(Cn2nnc(C(F)(F)C(F)(F)F)n2)nn1-c1ncccc1Cl [Example 14] | 90% | 2.87 | 100% | 100% | –
Cc1cc(C#N)cc(C(=O)NC2CSC2)c1NC(=O)c1cc(Cn2nnc(C(F)(F)F)n2)nn1-c1ncccc1Cl [Example 15] | 100% | 3.06 | 100% | 100% | –
Cc1cc(C#N)cc(C(=O)NC2COC2)c1NC(=O)c1cc(Cn2nnc(C(F)(F)F)n2)nn1-c1ncccc1Cl [Example 20] | – | – | 100% | 100% | activity in % (aphids killed) [3, 7]: 90%; log P ([4]; pH 2.7): 2.51
Cc1cc(C#N)cc(C(=O)NC2CSC2)c1NC(=O)c1cc(Cn2nnc(C(F)(F)F)n2)nn1-c1ccccc1Cl [Example 25] | – | – | 100% | – | pest or weed control at 100 g/ha [2, 8]: 100%; pest or weed control at 100 g/ha [3, 7]: 100%; chromatographic logP [4, 9]: 3.46
Cc1cc(C#N)cc(C(=O)NC2COC2)c1NC(=O)c1cc(Cn2nnc(C(F)(F)F)n2)nn1-c1c(Cl)cccc1Cl [Example 28] | – | – | 100% | – | pest or weed control at 100 g/ha [2, 8]: 100%; pest or weed control at 100 g/ha [3, 7]: 100%; chromatographic logP [4, 9]: 3.05
Cc1cc(C#N)cc(C(=O)NC2CCS(=O)(=O)C2)c1NC(=O)c1cc(Cn2nnc(C(F)(F)F)n2)nn1-c1ncccc1Cl (centres unmarked) [Example 29, 1-(3-chloropyridin-2-yl)-N-{4-cyano-2-[(1,1-dioxidotetrahydrothiophen-3-yl)carbamoyl]-6-methylphenyl}-3-{[5-(trifluoromethyl)-2H-tetrazol-2-yl]methyl}-1H-pyrazole-5-carboxamide] | – | 2.47 | – | – | pest or weed control at 500 g/ha [1]: 100%; pest or weed control at 500 g/ha ([2]; Spodoptera frugiperda, 168 h): 100%; pest or weed control at 500 g/ha [3]: 100%; inhibition at 100 g/ha [3]: 100%; log P (second value after the slash) ([4]; pH 2.7): 2.17
Cc1cc(C#N)cc(C(=O)NC2CCN(Cc3ccccc3)C2)c1NC(=O)c1cc(Cn2nnc(C(F)(F)C(F)(F)F)n2)nn1-c1ncccc1Cl (centres unmarked) [Example 32] | – | – | – | – | pest or weed control at 500 g/ha [1]: 100%; pest or weed control at 500 g/ha ([2]; Spodoptera frugiperda, 168 h, application rate 500 g/ha, after 7 days): 100%; pest or weed control at 100 g/ha [3, 7]: 90%; chromatographic logP [4, 9]: 2.14
Cc1cc(Cl)cc(C(=O)NC2CCS(=O)(=O)C2)c1NC(=O)c1cc(Cn2nnc(C(F)(F)F)n2)nn1-c1ncccc1Cl (centres unmarked) [Example 34] | 100% | 2.78 | 100% | 100% | –
Cc1cc(Cl)cc(C(=O)NC2CS(=O)(=O)CC2O)c1NC(=O)c1cc(Cn2nnc(C(F)(F)F)n2)nn1-c1ncccc1Cl (centres unmarked) [Example 35] | 80% | 2.58 | 100% | 100% | –

Compound | pest or weed control at 100 g/ha [3] | chromatographic logP ([4]; pH 2.7, log P) | pest or weed control at 100 g/ha [1] | pest or weed control at 100 g/ha ([2]; Spodoptera frugiperda, 168 h) | also measured
Cc1cc(C#N)cc(C(=O)NC2CCSC2=O)c1NC(=O)c1cc(Cn2nnc(C(F)(F)F)n2)nn1-c1ncccc1Cl (centres unmarked) [Example 39] | – | 2.89 | – | – | pest or weed control at 500 g/ha [1]: 100%; pest or weed control at 500 g/ha ([2]; Spodoptera frugiperda, 168 h): 100%; pest or weed control at 500 g/ha [3]: 100%; log P (second value after the slash) ([4]; pH 2.7): 2.57
Cc1cc(Cl)cc(C(=O)NN2CCN(C)C2=O)c1NC(=O)c1cc(Cn2nnc(C(F)(F)F)n2)nn1-c1ncccc1Cl [Example 41] | 80% | 2.64 | 100% | 100% | –
Cc1cc(Cl)cc(C(=O)NC2=NCCS2)c1NC(=O)c1cc(Cn2nnc(C(F)(F)F)n2)nn1-c1ncccc1Cl [Example 45] | 100% | 3.5 | 100% | 100% | log P (second value after the slash) ([4]; pH 2.7): 3.14
Cc1cc(C#N)cc(C(=O)NC2=NCCS2)c1NC(=O)c1cc(Cn2nnc(C(F)(F)F)n2)nn1-c1ncccc1Cl [Example 46] | 100% | 3.11 | 100% | 100% | log P (second value after the slash) ([4]; pH 2.7): 2.75
Cc1cc(C#N)cc(C(=O)NC2=NCCS2)c1NC(=O)c1cc(Cn2nnc(C(F)(F)C(F)(F)F)n2)nn1-c1ncccc1Cl [Example 48] | 80% | 3.49 | 100% | 100% | log P (second value after the slash) ([4]; pH 2.7): 3.18
Cc1cc(C#N)cc(C(=O)NC2CCN(C)C2=O)c1NC(=O)c1cc(Cn2nnc(C(F)(F)F)n2)nn1-c1ncccc1Cl (centres unmarked) [Example 49] | 100% | 2.39 | 100% | 100% | log P (second value after the slash) ([4]; pH 2.7): 2.19
Cc1cc(Cl)cc(C(=O)NC2CCN(C)C2=O)c1NC(=O)c1cc(Cn2nnc(C(F)(F)F)n2)nn1-c1ncccc1Cl (centres unmarked) [Example 50] | 100% | 2.66 | 100% | 100% | log P (second value after the slash) ([4]; pH 2.7): 2.36
Cc1cc(C#N)cc(C(=O)NC2CCS(=O)(=O)C2)c1NC(=O)c1cc(Cn2nnc(C(F)(F)F)n2)nn1-c1c(Cl)cccc1Cl (centres unmarked) [Example 54] | – | – | 100% | – | pest or weed control at 100 g/ha [2, 8]: 100%; pest or weed control at 100 g/ha [3, 7]: 80%; chromatographic logP [4, 9]: 2.95
Cc1cc(C#N)cc(C(=O)NC2CCSCC2)c1NC(=O)c1cc(Cn2nnc(C(F)(F)F)n2)nn1-c1ccccc1Cl [Example 58] | – | – | 100% | – | pest or weed control at 100 g/ha [3, 7]: 100%; chromatographic logP [4, 9]: 3.65
Cc1cc(Cl)cc(C(=O)NC(C)C2CCCO2)c1NC(=O)c1cc(Cn2nnc(C(F)(F)F)n2)nn1-c1ncccc1Cl (centres unmarked) [Example 62] | 100% | 3.45 | 100% | 100% | –
Cc1cc(Cl)cc(C(=O)NC(C)c2ccc(C(F)(F)F)cn2)c1NC(=O)c1cc(Cn2nnc(C(F)(F)F)n2)nn1-c1ncccc1Cl (centres unmarked) [Example 234] | – | – | 100% | – | pest or weed control at 100 g/ha [2, 8]: 100%; chromatographic logP [4, 9]: 4.04
Cc1cc(Cl)cc(C(=O)NCc2ccc(Cl)nc2)c1NC(=O)c1cc(Cn2nnc(C(F)(F)F)n2)nn1-c1ncccc1Cl [Example 235] | – | 3.42 | 100% | 100% | –
Cc1cc(C#N)cc(C(=O)NC2CCC2)c1NC(=O)c1cc(Cn2nnc(C(F)(F)F)n2)nn1-c1ncccc1Cl [No. 1 known WO2007/144100, reference compound] | – | – | – | – | inhibition at 20 g/ha [3]: 80%
Cc1cc(C#N)cc(C(=O)NC2CCCC2)c1NC(=O)c1cc(Cn2nnc(C(F)(F)F)n2)nn1-c1ncccc1Cl [No. 2 known WO2007/144100, reference compound] | – | – | – | – | inhibition at 100 g/ha [3]: 70%
Cc1cc(C#N)cc(C(=O)NC2CCCC2)c1NC(=O)c1cc(Cn2nnc(C(F)(F)F)n2)nn1-c1ccccc1Cl [No. 3 known WO2007/144100, reference compound] | – | – | – | – | inhibition at 100 g/ha ([2]; Spodoptera frugiperda, 168 h, 100 g/ha, 7 d, comparison with prior art): 83%; inhibition at 100 g/ha [3]: 0%
Cc1cc(Cl)cc(C(=O)NC2CCC2)c1NC(=O)c1cc(Cn2nnc(C(F)(F)F)n2)nn1-c1ncccc1Cl [No. 4 known WO2007/144100, reference compound] | – | – | – | – | inhibition at 20 g/ha [1]: 33%; inhibition at 20 g/ha [2, 6]: 83%; inhibition at 100 g/ha [3]: 0%
